Reference: paper PMC3189276 (2011)

Target: human cannabinoid receptor 2 (hCB2R) (Homo sapiens, UniProt P34972)
Format: binding

Sequence of human cannabinoid receptor 2 (hCB2R) (P34972 whole entry): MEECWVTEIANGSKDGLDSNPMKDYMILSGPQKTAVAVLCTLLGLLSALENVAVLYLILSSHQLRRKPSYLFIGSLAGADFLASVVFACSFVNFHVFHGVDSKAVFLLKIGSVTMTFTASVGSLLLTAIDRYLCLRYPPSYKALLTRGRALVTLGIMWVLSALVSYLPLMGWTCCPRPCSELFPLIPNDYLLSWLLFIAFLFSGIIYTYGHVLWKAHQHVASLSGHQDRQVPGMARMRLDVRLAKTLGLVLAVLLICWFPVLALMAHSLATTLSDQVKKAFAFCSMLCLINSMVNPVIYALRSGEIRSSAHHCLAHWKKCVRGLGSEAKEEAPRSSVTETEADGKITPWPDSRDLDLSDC

With `CC(C)(CCCCCCN=C=S)c1cc(O)c2c(c1)OC(C)(C)[C@H]1CC[C@@H](CO)C[C@@H]21` [AM-841] the “% (TMH6 covalently modified)” value was ~ 75 % (TMH6 covalently modified).
